Kd and IC50 data for 20 molecules are collected here from patent publication US20180057507A1, “INHIBITORS OF DUAL LEUCINE ZIPPER (DLK) KINASE FOR THE TREATMENT OF DISEASE” (Board of Regents, The University of Texas System, priority 2016, published 2018).

As usually defined, the Kd is the constant that tells how readily two partners part at equilibrium. A high value points to lower affinity. One may read the IC50 as the concentration that inhibits the measured activity by half. A higher IC50 goes with a need for much substance.

The target of assay [1] is T1, human DLK (Homo sapiens, UniProt Q12852).
T1 sequence (Q12852 1-859): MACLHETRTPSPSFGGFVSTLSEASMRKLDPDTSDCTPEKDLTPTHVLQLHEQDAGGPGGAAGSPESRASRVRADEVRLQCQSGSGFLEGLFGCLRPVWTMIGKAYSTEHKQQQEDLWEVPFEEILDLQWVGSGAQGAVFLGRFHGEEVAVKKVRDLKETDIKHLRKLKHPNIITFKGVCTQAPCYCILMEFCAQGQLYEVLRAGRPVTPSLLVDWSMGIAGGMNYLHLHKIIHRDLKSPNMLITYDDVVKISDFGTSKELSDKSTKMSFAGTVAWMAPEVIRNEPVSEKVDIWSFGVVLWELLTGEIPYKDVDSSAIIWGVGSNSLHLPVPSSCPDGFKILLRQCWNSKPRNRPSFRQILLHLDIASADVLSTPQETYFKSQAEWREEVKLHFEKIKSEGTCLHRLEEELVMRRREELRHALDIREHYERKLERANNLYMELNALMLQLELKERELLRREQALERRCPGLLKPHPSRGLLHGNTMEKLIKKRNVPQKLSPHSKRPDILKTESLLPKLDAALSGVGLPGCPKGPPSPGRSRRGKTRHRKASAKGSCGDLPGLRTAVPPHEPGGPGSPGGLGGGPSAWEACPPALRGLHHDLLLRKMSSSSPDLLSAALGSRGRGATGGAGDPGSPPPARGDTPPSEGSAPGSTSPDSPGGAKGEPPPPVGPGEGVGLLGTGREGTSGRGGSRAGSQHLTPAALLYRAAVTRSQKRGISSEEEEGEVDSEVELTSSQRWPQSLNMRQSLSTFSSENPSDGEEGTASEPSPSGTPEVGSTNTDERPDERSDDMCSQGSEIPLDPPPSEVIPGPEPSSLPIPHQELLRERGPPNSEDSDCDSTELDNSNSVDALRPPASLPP
The assay is described as follows: DLK Kd Determinations (KINOMEscan KdELECT, DiscoveRx). Further details: full length of human DLK (amino acids 1-859); host or cells: transiently transfected HEK293 cells; unpurified extract. The following applies: fusion protein of full length human DLK (amino acids 1-859) and NFkB DNA binding domain; qPCR readout; duplicate. The procedure, abridged:
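Kd values were fitted by Hill equation (slope −1) from duplicate 11-point 3-fold dilutions starting at 30,000 nM. Bead-immobilized ligand competed with compound for DNA-tagged full-length human DLK fusion in HEK293 extract (final DMSO 0.9%, 1 h, room temperature), with qPCR readout of bound kinase.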
On the technique in general: Real-time PCR tracks product formation cycle by cycle.

In assay [2] the target is T1, human DLK. Briefly: Phospho-cJun Cellular Assay. The assay is classed as cell-based. The arrangement: expressed in transfected cells. As to conditions: HEK293 cells stably transfected with Dox-inducible human DLK; p-cJun (Ser63); 5 h compound incubation. The protocol:
Phospho-cJun Cellular Assay
HEK293 cells stably transfected with a Dox-inducible human DLK were plated into a 384-well plate in 20 μl (40,000 cells/well) of DMEM medium (without phenol red) containing 10% fetal bovine serum, 1.5 μg/ml doxycycline and 1 μg/ml puromycin. The cells as negative control were grown in the absence of doxycycline. The plate was incubated at 37° C., 5% CO2 for 20 h, before DMSO (control) or compounds diluted in medium were added. The cells were incubated at 37° C. for an additional 5 h, followed by lysis and the addition detection antibodies from p-cJun (Ser63) cellular assay kit (Cisbio) per manufacturer protocol. The standard dose response curves were fitted by Genedata Screener software using the variable-slope model: Signal=Signalnegative control+(SignalDMSO control−Signalnegative control)/(1+(IC50/Dose)̂Hill slope). Only signal and dose in the equation were treated as known values.

Consider `CC(C)c1nc(-c2cnc(N)c(C(F)(F)F)c2)cn1[C@H]1[C@@H]2CC(N3CCN(CCF)CC3)C[C@@H]21` (single isomer, unassigned) [Example 155b, 5-(1-(3-(4-(2-fluoroethyl)piperazin-1-yl)bicyclo[3.1.0]hexan-6-yl)-2-isopropyl-1H-imidazol-4-yl)-3-(trifluoromethyl)pyridin-2-amine], for which the Kd in assay [1] turned out to be 4.5 nM. In assay [2], the concentration for half-maximal inhibition (IC50) stood at 1160 nM.

As to `CC(C)c1nc(-c2cnc(N)c(OC(F)(F)F)c2)cn1[C@H]1[C@@H]2CC(N3CCN(CCF)CC3)C[C@@H]21` (single isomer, unassigned) [Example 156a, 5-(1-(3-(4-(2-fluoroethyl)piperazin-1-yl)bicyclo[3.1.0]hexan-6-yl)-2-isopropyl-1H-imidazol-4-yl)-3-(trifluoromethoxy)pyridin-2-amine], the Kd in assay [1] stood at 30 nM. The molecule further displayed a concentration for half-maximal inhibition (IC50) in assay [2] of 747 nM.

`CC(C)c1nc(-c2cnc(N)c(OC(F)(F)F)c2)cn1[C@H]1[C@@H]2CC(N3CCN(CCF)CC3)C[C@@H]21` (single isomer, unassigned) [Example 156b, 5-(1-(3-(4-(2-fluoroethyl)piperazin-1-yl)bicyclo[3.1.0]hexan-6-yl)-2-isopropyl-1H-imidazol-4-yl)-3-(trifluoromethoxy)pyridin-2-amine]: binding in assay [1] was characterised by a dissociation constant (Kd) of 11 nM. This molecule came in with a half-inhibitory concentration (IC50) in assay [2] of 874 nM.

The molecule `CC(C)c1nc(-c2cnc(N)c(OC(F)(F)F)c2)cn1[C@H]1[C@@H]2CC(N3CCOC[C@@H]3C)C[C@@H]21` (single isomer, unassigned) [Example 157a] came in with a dissociation constant Kd in assay [1] of 57 nM. The same molecule came in with an IC50 in assay [2] of 895 nM.

With `CC(C)c1nc(-c2cnc(N)c(OC(F)(F)F)c2)cn1[C@H]1[C@@H]2CC(N3CCOC[C@@H]3C)C[C@@H]21` (single isomer, unassigned) [Example 157b], the Kd in assay [1] was 22 nM. In assay [2], this molecule yielded an IC50 of 827 nM.

In turn, `CC(C)Cc1nc(-c2cnc(N)c(OC(F)(F)F)c2)cn1[C@H]1[C@@H]2CC(N3CCN(CCF)CC3)C[C@@H]21` (single isomer, unassigned) [Example 159a, 5-(1-(3-(4-(2-fluoroethyl)piperazin-1-yl)bicyclo[3.1.0]hexan-6-yl)-2-isobutyl-1H-imidazol-4-yl)-3-(trifluoromethoxy)pyridin-2-amine] gave a Kd in assay [1] of 33 nM. Moreover, half-maximal inhibition in assay [2] (IC50) was put at 589 nM.

As for `CC(C)Cc1nc(-c2cnc(N)c(OC(F)(F)F)c2)cn1[C@H]1[C@@H]2CC(N3CCN(CCF)CC3)C[C@@H]21` (single isomer, unassigned) [Example 159b, 5-(1-(3-(4-(2-fluoroethyl)piperazin-1-yl)bicyclo[3.1.0]hexan-6-yl)-2-isobutyl-1H-imidazol-4-yl)-3-(trifluoromethoxy)pyridin-2-amine], the dissociation constant Kd in assay [1] turned out to be 49 nM. For the same molecule, in assay [2], the IC50 is 1550 nM.

Regarding `CC(C)Cc1nc(-c2cnc(N)c(C(F)(F)F)c2)cn1[C@H]1[C@@H]2CC(N3CCN(CCF)CC3)C[C@@H]21` (single isomer, unassigned) [Example 160a, 5-(1-(3-(4-(2-fluoroethyl)piperazin-1-yl)bicyclo[3.1.0]hexan-6-yl)-2-isobutyl-1H-imidazol-4-yl)-3-(trifluoromethyl)pyridin-2-amine], the Kd in assay [1] was determined as 13 nM. This molecule also showed an IC50 in assay [2] of 738 nM.

`CC(C)Cc1nc(-c2cnc(N)c(C(F)(F)F)c2)cn1[C@H]1[C@@H]2CC(N3CCN(CCF)CC3)C[C@@H]21` (single isomer, unassigned) [Example 160b, 5-(1-(3-(4-(2-fluoroethyl)piperazin-1-yl)bicyclo[3.1.0]hexan-6-yl)-2-isobutyl-1H-imidazol-4-yl)-3-(trifluoromethyl)pyridin-2-amine] came in with a Kd in assay [1] of 8.7 nM. Further, in assay [2], 775 nM corresponded to half-maximal inhibition (IC50).

Molecule `CN1CCN(C2C[C@@H]3[C@H](C2)[C@H]3n2cc(-c3cnc(N)c(C(F)(F)F)c3)nc2CC2CC2)CC1` (single isomer, unassigned) [Example 161a, 5-(2-(cyclopropylmethyl)-1-(3-(4-methylpiperazin-1-yl)bicyclo[3.1.0]hexan-6-yl)-1H-imidazol-4-yl)-3-(trifluoromethyl)pyridin-2-amine] yielded a Kd in assay [1] of 19 nM. The molecule also came in with an IC50 in assay [2] of 454 nM.

In assay [1], `Nc1ncc(-c2cn([C@H]3[C@@H]4CC(N5CCN(CCF)CC5)C[C@@H]43)c(CC3CC3)n2)cc1C(F)(F)F` (single isomer, unassigned) [Example 162b, 5-(2-(cyclopropylmethyl)-1-(3-(4-(2-fluoroethyl)piperazin-1-yl)bicyclo[3.1.0]hexan-6-yl)-1H-imidazol-4-yl)-3-(trifluoromethyl)pyridin-2-amine] had a dissociation constant (Kd) of 5.6 nM. This molecule also registered an IC50 in assay [2] of 769 nM.

Molecule `CC(C)c1nc(-c2cnc(N)c(OC(F)(F)F)c2)cn1[C@H]1C2CC(N3C[C@@H]4C[C@H]3CO4)C[C@@H]21` (stereo in doubt) [Example 134, 5-(1-((1S,5S)-3-((1S,4S)-2-oxa-5-azabicyclo[2.2.1]heptan-5-yl)bicyclo[3.1.0]hexan-6-yl)-2-isopropyl-1H-imidazol-4-yl)-3-(trifluoromethoxy)pyridin-2-amine] came in with a Kd in assay [1] of 33 nM. The molecule also registered an IC50 in assay [2] of 1040 nM.

In assay [1], `Nc1ncc(-c2cn([C@H]3[C@@H]4CN(C5COC5)C[C@@H]43)c(CC3CC3)n2)cc1C(F)(F)F` [Example 2, 5-(2-(cyclopropylmethyl)-1-((1R,5S,6s)-3-(oxetan-3-yl)-3-azabicyclo[3.1.0]hexan-6-yl)-1H-imidazol-4-yl)-3-(trifluoromethyl)pyridin-2-amine] registered a dissociation constant Kd of 46 nM. Also, 1730 nM corresponded to half-maximal inhibition in assay [2] (IC50).

`Nc1ncc(-c2cn3c(n2)C(C2CC2)N(C2COC2)CC3)cc1C(F)(F)F` (stereo not shown) [Example 4, 5-[8-cyclopropyl-7-(oxetan-3-yl)-5H,6H,7H,8H-imidazo[1,2-a]pyrazin-2-yl]-3-(trifluoromethyl)pyridin-2-amine] came in with a Kd in assay [1] of 390 nM. Also, 14800 nM corresponded to half-maximal inhibition in assay [2] (IC50).

The molecule `CC(C)c1nc(-c2cnc(N)c(C(F)(F)F)c2)cn1C1CC1` [Example 6, 5-[1-cyclopropyl-2-(propan-2-yl)-1H-imidazol-4-yl]-3-(trifluoromethyl)pyridin-2-amine] returned a Kd in assay [1] of 130 nM. Besides, the midpoint of inhibition in assay [2], the IC50, lay at 3620 nM.

Regarding `CC(C)c1nc(-c2cnc(N)c(C(F)(F)F)c2)cn1C1CCC1` [Example 7, 5-[1-cyclobutyl-2-(propan-2-yl)-1H-imidazol-4-yl]-3-(trifluoromethyl)pyridin-2-amine], in assay [1], the dissociation constant Kd is 66 nM. Further, the 50% inhibitory concentration (IC50) in assay [2] was 1070 nM.

For the molecule `CCC(O)c1nc(-c2cnc(N)c(C(F)(F)F)c2)cn1C1CCC1` (stereo not shown) [Example 22, 1-(4-(6-amino-5-(trifluoromethyl)pyridin-3-yl)-1-cyclobutyl-1H-imidazol-2-yl)propan-1-ol], in assay [1], the equilibrium dissociation constant (Kd) amounted to 18 nM. In assay [2], this molecule yielded an IC50 of 550 nM.

In assay [1], `CC(C)c1nc(-c2cnc(N)c(C(F)(F)F)c2)cn1C1CC2(C1)CN(C1COC1)C2` [Example 31, 5-(2-isopropyl-1-(2-(oxetan-3-yl)-2-azaspiro[3.3]heptan-6-yl)-1H-imidazol-4-yl)-3-(trifluoromethyl)pyridin-2-amine] had an equilibrium dissociation constant (Kd) of 82 nM. In assay [2], this molecule displayed an IC50 of 2150 nM.

In assay [1], `CC(C)c1nc(-c2cnc(N)c(C(F)(F)F)c2)cn1C1CC2(CC(N3CCOCC3)C2)C1` (stereo not shown) [Example 38, 5-(2-isopropyl-1-(6-morpholinospiro[3.3]heptan-2-yl)-1H-imidazol-4-yl)-3-(trifluoromethyl)pyridin-2-amine] yielded an equilibrium dissociation constant (Kd) of 25 nM. Moreover, the IC50 in assay [2] came out at 1140 nM.

In the case of `CC(C)c1nc(-c2cnc(N)c(OC(F)(F)F)c2)cn1C1CC2(CC(N3CCOCC3)C2)C1` (stereo not shown) [Example 39, 5-(2-isopropyl-1-(6-morpholinospiro[3.3]heptan-2-yl)-1H-imidazol-4-yl)-3-(trifluoromethoxy)pyridin-2-amine], in assay [1], the dissociation constant Kd stood at 30 nM. The molecule also had an IC50 in assay [2] of 771 nM.
